Data on 36 compounds can be found in ChEMBL document CHEMBL3351251, “3-Arylcoumarins: synthesis and potent anti-inflammatory activity” (Bioorg Med Chem Lett, 2014).

Series [1] in a line: Cytotoxicity against LPS-stimulated mouse RAW264.7 cells assessed as cell viability at 5 mg/L incubated for 24 hrs by alamar blue assay. The format is cell-based. To be noted: LPS-stimulated RAW264.7 cells, read-out: Activity.
Series [2] has as its system RAW264.7. Description: Anti-inflammatory activity in mouse RAW264.7 cells assessed as inhibition of LPS-induced nitric oxide production at 5 mg/L pre-incubated for 2 hrs before LPS stimulation for 24 hrs. The format is functional.
For series [3], the system named is RAW264.7. Briefly: Anti-inflammatory activity in mouse RAW264.7 cells assessed as inhibition of LPS-induced nitric oxide production pre-incubated for 2 hrs before LPS stimulation for 24 hrs. The format is functional, cell-based.

`COc1ccc(-c2cc3ccccc3oc2=O)cc1OC`: the viability at 24 h, 5 mg/L in series [1] was 47%. Also, in the series with RAW264.7 [2], the inhibition – broadly, the change of the read-out against control, counted positive when it falls – at 5 µg/mL was 47.4%.

Take `COc1ccc(-c2cc3cccc(OC)c3oc2=O)cc1`: in series [1], the viability at 24 h, 5 mg/L was determined as 81.3%. Besides, the inhibition at 5 µg/mL in the series with RAW264.7 [2] came to 44.6%.

With `COc1cccc2cc(-c3ccccc3)c(=O)oc12`, in series [1], the viability at 24 h, 5 mg/L came to 64.5%. In addition, the inhibition at 5 µg/mL with RAW264.7 [2] amounted to 78.4%.

On to `COc1ccc(-c2cc3ccccc3oc2=O)cc1`, for which the viability at 24 h, 5 mg/L in series [1] was determined as 93.4%. Further, the inhibition at 5 µg/mL in the series with RAW264.7 [2] is 59.6%.

As to `COc1cc(Br)cc2cc(-c3ccccc3)c(=O)oc12`, the viability at 24 h, 5 mg/L in series [1] turned out to be 29.6%. In addition, in the series with RAW264.7 [2], the inhibition at 5 µg/mL was 111%.

For the compound `COc1ccc(-c2cc3cc(Br)cc(OC)c3oc2=O)cc1`, the viability at 24 h, 5 mg/L in series [1] stood at 99.9%. In addition, the inhibition at 5 µg/mL in the series with RAW264.7 [2] is 44.2%.

Regarding `COc1ccc(-c2cc3cc(Cl)cc(Cl)c3oc2=O)cc1OC`, the viability at 24 h, 5 mg/L in series [1] was determined as 118%. Besides, the inhibition at 5 µg/mL in the series on RAW264.7 [2] stood at 27.3%.

For `COc1ccc(-c2cc3cc(Cl)ccc3oc2=O)cc1`, the viability at 24 h, 5 mg/L in series [1] was determined as 102%. Besides, in the series on RAW264.7 [2], the inhibition at 5 µg/mL was determined as 47.5%.

For the compound `COc1ccc(-c2cc3cccc(OC)c3oc2=O)cc1OC`, in series [1], the viability at 24 h, 5 mg/L turned out to be 87.7%. Moreover, the inhibition at 5 µg/mL in the series with RAW264.7 [2] was found to be 32.3%.

With `COc1cccc(-c2cc3cccc(OC)c3oc2=O)c1`, the viability at 24 h, 5 mg/L in series [1] was found to be 34.2%. Besides, the inhibition at 5 µg/mL with RAW264.7 [2] was 91.4%.

As for `COc1cc(-c2cc3cccc(OC)c3oc2=O)cc(OC)c1OC`, the viability at 24 h, 5 mg/L in series [1] was determined as 54.4%. In the series with RAW264.7 [2], the inhibition at 5 µg/mL worked out at 52%.

Take `COc1cccc2cc(-c3ccc(Cl)cc3)c(=O)oc12`: the viability at 24 h, 5 mg/L in series [1] was 93.5%. The inhibition at 5 µg/mL with RAW264.7 [2] is 61.7%.

In the case of `COc1cccc2cc(-c3ccc(F)cc3)c(=O)oc12`, the viability at 24 h, 5 mg/L in series [1] came out at 127%. Moreover, the inhibition at 5 µg/mL in the series with RAW264.7 [2] was found to be 47.6%.

Take `COc1ccc(-c2cc3cc(Cl)ccc3oc2=O)cc1OC`: the viability at 24 h, 5 mg/L in series [1] worked out at 105%. In the series with RAW264.7 [2], the inhibition at 5 µg/mL was determined as 31.2%.

Take `COc1ccccc1-c1cc2cc(Cl)ccc2oc1=O`: the viability at 24 h, 5 mg/L in series [1] is 115%. Moreover, the inhibition at 5 µg/mL in the series on RAW264.7 [2] is 65.7%.

Turning to `COc1cc(-c2cc3cc(Cl)ccc3oc2=O)cc(OC)c1OC`, the viability at 24 h, 5 mg/L in series [1] is 78.4%. The inhibition at 5 µg/mL in the series on RAW264.7 [2] is 57.6%.

Take `O=c1oc2ccc(Cl)cc2cc1-c1ccc(Cl)cc1`: the viability at 24 h, 5 mg/L in series [1] was 114%. Also, in the series on RAW264.7 [2], the inhibition at 5 µg/mL was found to be 12.1%.

Take `COc1ccc(-c2cc3cc(Cl)cc(Cl)c3oc2=O)cc1`: in series [1], the viability at 24 h, 5 mg/L is 99.3%. The inhibition at 5 µg/mL in the series on RAW264.7 [2] amounted to 20.8%.

With `COc1cccc(-c2cc3cc(Cl)cc(Cl)c3oc2=O)c1`, the viability at 24 h, 5 mg/L in series [1] was 105%. The inhibition at 5 µg/mL in the series on RAW264.7 [2] was 36%.

Take `COc1ccccc1-c1cc2cc(Cl)cc(Cl)c2oc1=O`: the viability at 24 h, 5 mg/L in series [1] is 119%. Also, the IC50 (as a rule, the point on the concentration scale where inhibition reaches its midpoint) in the series on RAW264.7 [3] stood at 8.5 µM. For the same compound, the inhibition at 5 µg/mL in the series with RAW264.7 [2] stood at 76.9%.

For `O=c1oc2c(Cl)cc(Cl)cc2cc1-c1ccccc1`, the viability at 24 h, 5 mg/L in series [1] came out at 104%. For the same compound, the inhibition at 5 µg/mL in the series on RAW264.7 [2] is 53.4%.

Take `COc1cccc(-c2cc3ccccc3oc2=O)c1`: the viability at 24 h, 5 mg/L in series [1] was 48.4%. In addition, the inhibition at 5 µg/mL in the series on RAW264.7 [2] is 49.2%.

With `O=c1oc2ccccc2cc1-c1ccc(F)cc1`, the viability at 24 h, 5 mg/L in series [1] was determined as 110%. Besides, the inhibition at 5 µg/mL in the series with RAW264.7 [2] was found to be 9.98%.

On to `COc1ccc(-c2cc3cc(Br)cc(OC)c3oc2=O)cc1OC`, for which, in series [1], the viability at 24 h, 5 mg/L stood at 98%. Also, the inhibition at 5 µg/mL with RAW264.7 [2] was 53.5%.

Take `COc1cccc(-c2cc3cc(Br)cc(OC)c3oc2=O)c1`: the viability at 24 h, 5 mg/L in series [1] turned out to be 116%. For the same compound, the 50% inhibitory concentration (IC50) in the series on RAW264.7 [3] was 6.9 µM. The inhibition at 5 µg/mL with RAW264.7 [2] was found to be 72.3%.

On to `COc1ccccc1-c1cc2cc(Br)cc(OC)c2oc1=O`, for which the viability at 24 h, 5 mg/L in series [1] is 95.7%. For the same compound, the inhibition at 5 µg/mL with RAW264.7 [2] came to 47.6%.

On to `COc1cc(-c2cc3cc(Br)cc(OC)c3oc2=O)cc(OC)c1OC`, for which the viability at 24 h, 5 mg/L in series [1] was determined as 115%. Also, the inhibition at 5 µg/mL in the series on RAW264.7 [2] was 47.3%.

On to `COc1cc(Br)cc2cc(-c3ccc(F)cc3)c(=O)oc12`, for which the viability at 24 h, 5 mg/L in series [1] stood at 103%. Also, in the series on RAW264.7 [2], the inhibition at 5 µg/mL was 33.9%.

Take `COc1cc(Br)cc2cc(-c3cccc(OC(C)=O)c3)c(=O)oc12`: the viability at 24 h, 5 mg/L in series [1] amounted to 66.5%. Further, the inhibition at 5 µg/mL in the series with RAW264.7 [2] was found to be 84.1%.

Regarding `COc1cc(Br)cc2cc(-c3cccc(O)c3)c(=O)oc12`, the viability at 24 h, 5 mg/L in series [1] was 28.5%. Moreover, in the series with RAW264.7 [2], the inhibition at 5 µg/mL worked out at 116%.

With `COc1cc(Br)cc2cc(-c3ccc(OC(C)=O)cc3)c(=O)oc12`, the viability at 24 h, 5 mg/L in series [1] was 61.7%. The inhibition at 5 µg/mL in the series on RAW264.7 [2] was 77.8%.

On to `COc1cc(Br)cc2cc(-c3ccc(O)cc3)c(=O)oc12`, for which the viability at 24 h, 5 mg/L in series [1] is 24.4%. Besides, in the series on RAW264.7 [2], the inhibition at 5 µg/mL was 91.3%.

As to `COc1ccc(OC)c(-c2cc3cc(Br)cc(OC)c3oc2=O)c1`, the viability at 24 h, 5 mg/L in series [1] amounted to 93.5%. Moreover, the inhibition at 5 µg/mL in the series with RAW264.7 [2] was determined as 45.9%.

Regarding `COc1cc(Br)cc2cc(-c3cccnc3)c(=O)oc12`, the viability at 24 h, 5 mg/L in series [1] was 84.9%. Moreover, the inhibition at 5 µg/mL with RAW264.7 [2] is 58.6%.

For the compound `O=c1oc2ccccc2cc1-c1ccccc1`, the viability at 24 h, 5 mg/L in series [1] came out at 104%. Also, in the series on RAW264.7 [2], the inhibition at 5 µg/mL is 69.5%.

As for `COc1cc(/C=C/C(=O)CC(=O)/C=C/c2ccc(O)c(OC)c2)ccc1O` [CURCUMIN], the half-inhibitory concentration (IC50) in the series on RAW264.7 [3] was determined as 6.2 µM. Further, in the series on RAW264.7 [2], the inhibition at 5 µg/mL amounted to 77%.
